This is an account of results in patent US7994196B2, “Indazole compound and pharmaceutical use thereof” (Mitsubishi Tanabe Pharma Corporation, priority 2004, dated 2011).

Molecules are shown by their SMILES.

One may read the IC50 as the midpoint of a concentration-inhibition curve.

One assay concerns MMP-9 production. Briefly: Determination of MMP-9 Production Inhibitory Activity (PMA-stimulated HEC3 cells, gelatin zymography). Particulars: Endothelial cell; immortalized human vascular endothelial cells HEC3, PMA 10^-7 M stimulation, 24 hr; test substance at 10, 2, 0.4 and 0.08 μM; read-out: IC50 (MMP-9 production inhibitory rate). In kind it is cell-based. How it is done:
Immortalized human vascular endothelial cells HEC3 (supplied by Prof. Iijima of Nagoya University) were subcultured in RPMI1640 medium (Sigma Ltd.) containing 10% fetal calf serum.
The HEC3 cells (5×10^4 cells/well) were plated on a 24-well plate, and cultured in RPMI1640 medium containing 10% fetal calf serum for 24 hr. Each well was washed once with serum-free RPMI1640 medium. Then, RPMI1640 medium (250 μl/well) containing 0.05% fetal calf serum was added to each well, and the cells were further cultured for 2 hr.
The supernatant was removed, and the test substances (Example compounds shown in Table 1) diluted to various concentrations were added and incubated for 1 hr in 0.05% serum-containing RPMI1640 medium and the supernatant was removed again. A medium containing a test substance having the same concentration as in the pre-treatment and PMA (10^−7 M), which is a stimulant, was added at 250 μl/well, and the cells were further cultured for 24 hr.
After completion of the culture, water (50 μl) and 25 μl of SDS buffer (240 mM Tris-HCl (pH 6.8), 8% SDS, 40% glycerol) were added to the culture supernatant (25 μl), and the mixture (10 μl) was electrophoresed on a 7.5% polyacrylamide gel containing 0.1% gelatin.
After the electrophoresis, the gel was washed with Tris-HCl buffer (pH 7.5) containing 0.5% Triton X-100 (Sigma Ltd.) for 1 hr. The gel was immersed in an activation buffer (150 mM NaCl, 50 mM Tris-HCl (pH 7.5), 10 mM CaCl2) at 37° C. for 18 hr to activate MMP-9, and then stained with CBB. The obtained MMP-9 band was converted to numerical values by a densitometer (ATTO. Ltd.).
The MMP-9 production inhibitory rate by the test substance was calculated by the following equation. MMP-9 production inhibitory rate=100−100×{(test substance addition value−non-stimulation value)/(PMA stimulation value−non-stimulation value)}
The MMP-9 production inhibitory rates of the test substance at 10, 2, 0.4 and 0.08 μM were calculated, and IC50 value of the each test substance was determined using an analysis soft (RegExcel).
Consider `N#CC1(c2cc(F)cc(F)c2)CCN(C(=O)Nc2n[nH]c3ccccc23)CC1` [Ex. 47], for which the IC50 is 350 nM.

The assay is the same for the next values; noted with them: Homo sapiens, Endothelial cell, 24 h, immortalized human vascular endothelial cells HEC3, PMA 10^-7 M stimulation, test substance at 10, 2, 0.4 and 0.08 μM, read-out: IC50 (MMP-9 production inhibitory rate).
Regarding `CN(C)CC1c2[nH]c3ccccc3c2CCN1C(=O)Nc1n[nH]c2ccccc12` (stereo not drawn) [Ex. 108, 1-[(dimethylamino)methyl]-1,3,4,9-tetrahydro-β-carboline-2-carboxylic acid (1H-indazol-3-yl)amide], the IC50 was determined as 670 nM.
On the same count and under the same terms, the value for `O=C(Nc1n[nH]c2ccccc12)N1CCC(O)(c2ccc3c(c2)OCO3)CC1` [Ex. 27] was 940 nM.
The same measure, in the same setting: then `O=C(Nc1n[nH]c2ccccc12)N1CCc2c([nH]c3ccc(C(F)(F)F)cc23)C1` [Ex. 69], with 160 nM.
As to `O=C(Nc1n[nH]c2ccccc12)N1CCC(O)(c2ccc(F)c(Cl)c2)CC1` [Ex. 15], the IC50 was found to be 450 nM.
Consider `O=C(Nc1n[nH]c2ccccc12)N1CCC(O)(c2cc(C(F)(F)F)cc(C(F)(F)F)c2)CC1` [Ex. 34], for which the IC50 is 430 nM.
Take `Cc1ccc(C)c(C2(O)CCN(C(=O)Nc3n[nH]c4ccccc34)CC2)c1` [Ex. 139, 4-(2,5-dimethylphenyl)-4-hydroxy-1-piperidinecarboxylic acid (1H-indazol-3-yl)amide]: the IC50 worked out at 450 nM.
On the same count and under the same terms, then `O=C(Nc1n[nH]c2ccccc12)N1CC=C(c2ccccc2)CC1` [Ex. 49], with 260 nM.
Take `O=C(Nc1n[nH]c2ccccc12)N1CCC(F)(c2ccc(Cl)c(C(F)(F)F)c2)CC1` [Ex. 123, 4-[4-chloro-3-(trifluoromethyl)phenyl]-4-fluoropiperidine-1-carboxylic acid (1H-indazol-3-yl)amide]: the IC50 was found to be 730 nM.
With `O=C(Nc1n[nH]c2ccccc12)N1CCC(O)(c2cc(F)cc(C(F)(F)F)c2)CC1` [Ex. 6], the IC50 came to 290 nM.
`Cc1c(C(F)(F)F)cccc1C1(O)CCN(C(=O)Nc2n[nH]c3ccccc23)CC1` [Ex. 140, 4-hydroxy-4-[2-methyl-3-(trifluoromethyl)phenyl]-1-piperidinecarboxylic acid (1H-indazol-3-yl)amide]: the IC50 worked out at 620 nM.
Turning to `O=C(Nc1n[nH]c2ccccc12)N1CCC(O)(c2cc(F)cc(Cl)c2)CC1` [Ex. 22], the IC50 was found to be 330 nM.
As for `Cc1cc(C2(O)CCN(C(=O)Nc3n[nH]c4ccccc34)CC2)ccc1F` [Ex. 136, 4-(4-fluoro-3-methylphenyl)-4-hydroxy-1-piperidinecarboxylic acid (1H-indazol-3-yl)amide], the half-maximal inhibitory concentration (IC50) was determined as 410 nM.
Same read-out and setting: the value for `O=C(Nc1n[nH]c2ccccc12)N1CCC(O)(c2ccc(Cl)c(C(F)(F)F)c2)CC1` [Ex. 1] was 790 nM; that for `O=C(Nc1n[nH]c2ccccc12)N1CCC(O)(c2cc(C(F)(F)F)ccc2Cl)CC1` [Ex. 36] was 540 nM.
Take `O=C(Nc1n[nH]c2ccccc12)N1CCC(O)(c2ccc(Cl)c(Cl)c2)CC1` [Ex. 21]: the IC50 is 380 nM.
